Biological target: T1, human OX2 receptor (Homo sapiens, UniProt O43614)
T1 construct: expressed in transfected cells
T1 sequence (O43614 1-444): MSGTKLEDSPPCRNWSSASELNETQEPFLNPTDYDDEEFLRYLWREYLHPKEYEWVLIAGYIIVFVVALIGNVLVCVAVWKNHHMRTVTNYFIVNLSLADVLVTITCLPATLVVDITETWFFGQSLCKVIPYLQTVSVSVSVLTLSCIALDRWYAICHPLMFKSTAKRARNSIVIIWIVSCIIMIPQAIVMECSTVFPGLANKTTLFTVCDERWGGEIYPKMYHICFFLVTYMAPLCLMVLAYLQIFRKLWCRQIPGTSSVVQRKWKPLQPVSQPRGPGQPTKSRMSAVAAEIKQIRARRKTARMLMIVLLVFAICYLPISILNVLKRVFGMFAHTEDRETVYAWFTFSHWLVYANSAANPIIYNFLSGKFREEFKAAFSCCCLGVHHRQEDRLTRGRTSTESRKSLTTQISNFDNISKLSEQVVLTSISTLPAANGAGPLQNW
Test: Measurement of orexin type 2 receptor agonist activity (Experimental Example 2; Fluo-4 AM calcium fluorescence, FDSS μCELL)
Assay type: cell-based
Settings: compound at 3 μM; CHO cells expressing human OX2 receptor; DMSO = 0%, 10 nM orexin A (human) = 100%
Experimental: In order to obtain cell clones that stably express human orexin type 2 receptor, human orexin type 2 (residues 1-444, NCBI Reference Sequence: AK314279) was constructed in a pcDNA3.1 (+) vector (Invitrogen) to express in mammalian cells. This plasmid DNA was transfected into CHO-K1 cells by electroporation, and stable clones were obtained by limiting dilution using resistance to G418 as a selection marker.
CHO cells in which human OX2 receptor was forcibly expressed were seeded at 10,000 cells/well into a 384-well black transparent bottom plate (BD falcon), and were incubated at 37° C., 5% CO2 for 1 day after incubation at room temperature for 30 minutes. After removing the cell plate medium, assay buffer containing calcium indicator A (HBSS (Thermo Fisher Scientific), 20 mM HEPES (Thermo Fisher Scientific), 0.1% BSA (Sigma-Aldrich), 2.5 μg/mL Fluo-4 AM (Dojin Kagaku), 0.08% Pluronic F127 (Dojin Kagaku), 1.25 mM probenecid (Dojin Kagaku)) was added at 30 μL/well. After incubation in a 5% CO2 incubator at 37° C. for 30 minutes, it was incubated at room temperature for another 30 minutes. Add 10 μL/well of the test compound diluted with assay buffer B (HBSS, 20 mM HEPES, 0.1% BSA), and use FDSS μCELL (Hamamatsu Photonics) to measure the fluorescence value every 1 second for 1 minute, and then every 2 seconds for 1 minute. It was measured for 1 minute and 40 seconds. The amount of fluorescence value when DMSO is added instead of the test compound is defined as 0%, and the amount of fluorescence value when orexin A (human) (Peptide Institute) with a final concentration of 10 nM is added is defined as 100%. The activity (%) of the test compound was calculated. Table 2-1, 2-2, 2-3, and 2-4 show the activity of each compound at a concentration of 3 μM.

| SMILES | OX2R agonist activity (3 μM, %) |
| --- | --- |
| CS(=O)(=O)N[C@@H]1[C@@H]2Cc3cccc(c3F)Oc3nc(ccc3Cl)CN(CC(F)F)C(=O)N2CC1(F)F [Example 60, N-[(15aS,16R)-7-chloro-2-(2,2-difluoroethyl)-17,17,20-trifluoro-1-oxo-2,3,15a,16,17,18-hexahydro-1H,15H-4,8-(azeno)-14,10-(metheno)pyrrolo[1,2-j][1,8,10]oxadiazacyclo-heptadecin-16-yl]methanesulfonamide] | 104% |
| Cc1cnc2nc1Oc1cccc(c1F)C[C@H]1[C@@H](NS(C)(=O)=O)C(F)(F)CN1C(=O)C1CCN21 (stereo partly drawn) [Example 52, N-[(15aS,16R)-17,17,21-trifluoro-7-methyl-20-oxo-1,2,15a,16,17,18,20,20a-octahydro-15H-4,8-(azeno)-10,14-(metheno)azeto[1,2-g]pyrrolo[1,2-j][1,5,7,10]oxatriazacyclo-heptadecin-16-yl]methanesulfonamide (optical isomer)] | 93% |
| Cc1cnc2nc1Oc1cccc(c1F)C[C@H]1[C@@H](NS(C)(=O)=O)C(F)(F)CN1C(=O)[C@@H]1C[C@@H](F)CN21 [Example 74, N-[(2R,16aS,17R,21aS)-2,18,18,22-tetrafluoro-8-methyl-21-oxo-2,3,16a,17,18,19,21,21a-octahydro-1H,16H-5,9-(azeno)-11,15-(metheno)dipyrrolo[1,2-g:1′,2′-j][1,5,7,10]oxatriazacyclo-heptadecin-17-yl]methanesulfonamide] | 96% |
| CCS(=O)(=O)N[C@@H]1[C@@H]2Cc3cccc(c3F)Oc3nc(cnc3C)CCC(=O)N2CC1(F)F [Example 61, N-[(1R,19aS)-2,2,20-trifluoro-11-methyl-5-oxo-2,3,6,7,19,19a-hexahydro-1H,5H-8,12-(azeno)-18,14-(metheno)pyrrolo[1,2-j][1,4,10]oxadiazacyclo-heptadecin-1-yl]ethanesulfonamide] | 106% |
| CS(=O)(=O)N[C@@H]1[C@@H]2Cc3cccc(c3F)Oc3nc(cs3)CNC(=O)N2CC1(F)F [Example 85, N-[(14aS,15R)-16,16,19-trifluoro-1-oxo-2,3,14a,15,16,17-hexahydro-1H,14H-4,7-(azeno)-9,13-(metheno)pyrrolo[1,2-i][1,3,7,9]oxathiadiazacyclo-hexadecin-15-yl]methanesulfonamide] | 95% |
| Cc1ccc2nc1Oc1cccc(c1F)C[C@H]1[C@@H](NS(=O)(=O)C3CC3)C(F)(F)CN1C(=O)NC2 [Example 23, N-[(15aS,16R)-17,17,20-trifluoro-7-methyl-1-oxo-2,3,15a,16,17,18-hexahydro-1H,15H-4,8-(azeno)-14,10-(metheno)pyrrolo[1,2-j][1,8,10]oxadiazacyclo-heptadecin-16-yl]cyclopropanesulfonamide] | 96% |
| CCS(=O)(=O)N[C@@H]1[C@@H]2Cc3cccc(c3F)Oc3nc(ccc3C)OCC(=O)N2CC1(F)F [Example 45, N-[(15aS,16R)-17,17,20-trifluoro-7-methyl-1-oxo-1,2,15a,16,17,18-hexahydro-15H-4,8-(azeno)-14,10-(metheno)pyrrolo[1,2-d][1,12,4]dioxazacyclo-heptadecin-16-yl]ethanesulfonamide] | 105% |
| Cc1ncc2nc1Oc1cccc(c1F)C[C@H]1[C@@H](NS(C)(=O)=O)C(F)(F)CN1C(=O)CO2 [Example 65, N-[(15aS,16R)-17,17,20-trifluoro-7-methyl-1-oxo-1,2,15a,16,17,18-hexahydro-15H-4,8-(azeno)-10,14-(metheno)pyrrolo[1,2-j][1,7,4,10]dioxadiazacyclo-heptadecin-16-yl]methanesulfonamide] | 102% |
| Cc1ccc2nc1Oc1cccc(c1F)C[C@H]1[C@@H](NS(=O)(=O)N(C)C)C(F)(F)CN1C(=O)NC2 [Example 11, N,N-dimethyl-N′-[(15aS,16R)-17,17,20-trifluoro-7-methyl-1-oxo-2,3,15a,16,17,18-hexahydro-1H,15H-4,8-(azeno)-14,10-(metheno)pyrrolo[1,2-j][1,8,10]oxadiazacyclo-heptadecin-16-yl]sulfuric diamide] | 98% |
| CS(=O)(=O)N[C@@H]1[C@@H]2Cc3ccc(F)c(c3)Oc3nc(ccc3Cl)OCC(=O)N2CC1(F)F (relative stereo) [Example 95, N-[rel-(15aS,16R)-7-chloro-11,17,17-trifluoro-1-oxo-1,2,15a,16,17,18-hexahydro-15H-4,8-(azeno)-14,10-(metheno)pyrrolo[1,2-d][1,12,4]dioxazacyclo-heptadecin-16-yl]methanesulfonamide (optical isomer)] | 103% |
| CCS(=O)(=O)N[C@H]1[C@@H](F)CN2C(=O)COc3ccc(Cl)c(n3)Oc3cccc(c3F)C[C@@H]12 [Example 80, N-[(15aS,16R,17S)-7-chloro-17,20-difluoro-1-oxo-1,2,15a,16,17,18-hexahydro-15H-4,8-(azeno)-14,10-(metheno)pyrrolo[1,2-d][1,12,4]dioxazacyclo-heptadecin-16-yl]ethanesulfonamide] | 100% |
| CS(=O)(=O)N[C@@H]1[C@@H]2Cc3cccc(c3F)Oc3nc(ccc3C(F)F)CNC(=O)N2CC1(F)F [Example 41, N-[(15aS,16R)-7-(difluoromethyl)-17,17,20-trifluoro-1-oxo-2,3,15a,16,17,18-hexahydro-1H,15H-8,4-(azeno)-10,14-(metheno)pyrrolo[1,2-j][1,8,10]oxadiazacyclo-heptadecin-16-yl]methanesulfonamide] | 107% |
| CCS(=O)(=O)N[C@@H]1[C@@H]2Cc3cccc(c3F)Oc3nc(c(F)cc3C)CNC(=O)N2CC1(F)F [Example 32, N-[(15aS,16R)-5,17,17,20-tetrafluoro-7-methyl-1-oxo-2,3,15a,16,17,18-hexahydro-1H,15H-4,8-(azeno)-14,10-(metheno)pyrrolo[1,2-j][1,8,10]oxadiazacyclo-heptadecin-16-yl]ethanesulfonamide] | 101% |
| CCS(=O)(=O)N[C@@H]1[C@@H]2Cc3cccc(c3F)Oc3nc(c(F)cc3F)CNC(=O)N2CC1(F)F [Example 21, N-[(15aS,16R)-5,7,17,17,20-pentafluoro-1-oxo-2,3,15a,16,17,18-hexahydro-1H,15H-4,8-(azeno)-14,10-(metheno)pyrrolo[1,2-j][1,8,10]oxadiazacyclo-heptadecin-16-yl]ethanesulfonamide] | 100% |
| CNS(=O)(=O)N[C@@H]1[C@@H]2Cc3cccc(c3F)Oc3nc(ccc3Cl)OCC(=O)N2CC1(F)F [Example 63, N-[(15aS,16R)-7-chloro-17,17,20-trifluoro-1-oxo-1,2,15a,16,17,18-hexahydro-15H-4,8-(azeno)-10,14-(metheno)pyrrolo[1,2-d][1,12,4]dioxazacyclo-heptadecin-16-yl]-N′-methylsulfuric diamide] | 106% |
| CS(=O)(=O)N[C@@H]1[C@@H]2Cc3cccc(c3)Oc3nc(ccc3C(F)F)[C@@H]3C[C@@H]3C(=O)N2CC1(F)F (single isomer, unassigned) [Example 107] | 108% |
| CS(=O)(=O)N[C@H]1[C@@H](F)CN2C(=O)OCc3ccc(C(F)F)c(n3)Oc3cccc(c3F)C[C@@H]12 [Example 38, N-[(15aS,16R,17S)-7-(difluoromethyl)-17,20-difluoro-1-oxo-15a,16,17,18-tetrahydro-1H,3H,15H-8,4-(azeno)-10,14-(metheno)pyrrolo[1,2-c][1,11,3]dioxazacyclo-heptadecin-16-yl]methanesulfonamide] | 80% |
| CO[C@@H]1C[C@H]2C(=O)N3CC(F)(F)[C@H](NS(C)(=O)=O)[C@@H]3Cc3cccc(c3F)Oc3nc(ncc3C)N2C1 [Example 83, N-[(2R,16aS,17R,21aS)-18,18,22-trifluoro-2-methoxy-8-methyl-21-oxo-2,3,16a,17,18,19,21,21a-octahydro-1H,16H-5,9-(azeno)-11,15-(metheno)dipyrrolo[1,2-g:1′,2′-j][1,5,7,10]oxatriazacyclo-heptadecin-17-yl]methanesulfonamide] | 96% |

Source: patent publication US20240309016A1, “MACROCYCLIC HETEROCYCLE COMPOUNDS AND USE THEREOF” (TAKEDA PHARMACEUTICAL COMPANY LIMITED, priority 2023, published 2024)
